Laboratory results from article PMC9177545, “3-oxo-C12:2-HSL, quorum sensing molecule from human intestinal microbiota, inhibits pro-inflammatory pathways in immune cells via bitter taste receptors” (Scientific Reports, 2022).

Key:
Assay in all cases: Bitter taste receptor screening, calcium mobilization in HEK293T cells
Assay type in all cases: cell-based
[1] = biological target: T1, TAS2R13 (Homo sapiens, UniProt Q9NYV9)
T1 construct: first 45 amino acids of rat somatostatin type 3 receptor (SSTR3) (N); expressed in transfected cells; host or cells: HEK293T stably expressing chimeric Gα16gust44, transiently co-transfected with the pcDNA4-TAS2R vector and pCMV-GCaMP5G
T1 sequence (Q9NYV9 1-303): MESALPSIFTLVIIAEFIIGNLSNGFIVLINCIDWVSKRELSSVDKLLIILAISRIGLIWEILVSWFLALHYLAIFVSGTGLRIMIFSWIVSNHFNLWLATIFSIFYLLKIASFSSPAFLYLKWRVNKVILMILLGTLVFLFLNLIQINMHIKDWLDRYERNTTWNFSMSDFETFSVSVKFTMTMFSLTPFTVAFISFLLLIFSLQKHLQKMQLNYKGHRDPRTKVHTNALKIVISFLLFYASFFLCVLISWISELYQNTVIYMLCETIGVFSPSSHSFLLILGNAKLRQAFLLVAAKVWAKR
Procedure: (§1) Bitter taste receptor cDNA were cloned into the pcDNA4 mammalian expression vector (Invitrogen) using full coding receptor sequences reported on UniProt database. The synthetic constructs were codon optimized (Genewiz) and combine the first 45 amino acids of rat somatostatin type 3 receptor at the amino terminus to improve plasma membrane targeting of the receptors in the heterologous system. The FLAG epitope was added to the carboxy terminus without interfering with receptor functionality and can be used for immunocytochemistry. Calcium-mobilization assays were performed using human embryonic kidney cells (HEK293T) stably transfected with chimeric Gα16gust44 protein[78]. Cells were seeded in black, poly-D-lysine coated 96-well plates at a density of 35,000 cells/100 µL in high glucose DMEM supplemented with 10% dialysed fetal bovine serum and 1% penicillin/streptomycin. Twenty-four hours later, the cells were transiently co-transfected using Lipofectamine 2000 (Life Technologies) with one of the TAS2R synthetic optimized vectors or empty expression plasmid, as a negative control, and the pCMV-GCaMP5G construct (Addgene #31788) coding for a genetically encoded calcium indicator[79],[80]. Twenty-four hours after transfection, cells were washed twice with C1 buffer (130 mM NaCl, 5 mM KCl, 10 mM HEPES, 2 mM CaCl2, 5 mM sodium pyruvate, pH7.4). 3-oxo-C12:2-HSL was solved in DMSO and further diluted in C1 buffer. Next, the cells were placed in a fluorometric imaging plate reader (Flexstation® 3, Molecular Devices) and stimulated with automatic injection of increasing concentrations of AHLs. Calcium responses leading to increase in fluorescence were monitored at 510 nm after excitation at 488 nm. Experiments were performed in duplicates and repeated at least four times. The recorded calcium levels of each wells receiving the same stimulus were averaged, response of mock-transfected cells were subtracted from receptor-transfected cells and net signals were normalized to background fluorescence (F/F0, F0 fluorescence light before stimulus application). The resulting dose–response curves of the averaged fluorescent signal amplitudes against the logarithm of the agonist concentration were fitted using Sigma Plot software. For data analysis, the four-parameter logistic equation [f(x) = min + (max − min)/(1 + (x/EC50)nH)] was used to calculate the half-maximal effective concentrations (EC50 values).

[2] = biological target: T2, TAS2R8 (Homo sapiens, UniProt Q9NYW2)
T2 construct: first 45 amino acids of rat somatostatin type 3 receptor (SSTR3) (N); expressed in transfected cells; host or cells: HEK293T stably expressing chimeric Gα16gust44, transiently co-transfected with the pcDNA4-TAS2R vector and pCMV-GCaMP5G
T2 sequence (Q9NYW2 1-309): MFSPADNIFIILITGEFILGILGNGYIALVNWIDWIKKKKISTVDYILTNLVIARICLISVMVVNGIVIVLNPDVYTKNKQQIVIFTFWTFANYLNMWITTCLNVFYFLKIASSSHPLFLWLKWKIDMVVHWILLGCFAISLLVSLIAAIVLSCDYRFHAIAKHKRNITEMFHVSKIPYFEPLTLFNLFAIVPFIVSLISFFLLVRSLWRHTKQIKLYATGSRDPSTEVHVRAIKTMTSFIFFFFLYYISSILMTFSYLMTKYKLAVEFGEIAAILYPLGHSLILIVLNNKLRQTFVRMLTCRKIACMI
Procedure: as §1

[3] = biological target: T3, TAS2R10 (Homo sapiens, UniProt Q9NYW0)
T3 construct: first 45 amino acids of rat somatostatin type 3 receptor (SSTR3) (N); expressed in transfected cells; host or cells: HEK293T stably expressing chimeric Gα16gust44, transiently co-transfected with the pcDNA4-TAS2R vector and pCMV-GCaMP5G
T3 sequence (Q9NYW0 1-307): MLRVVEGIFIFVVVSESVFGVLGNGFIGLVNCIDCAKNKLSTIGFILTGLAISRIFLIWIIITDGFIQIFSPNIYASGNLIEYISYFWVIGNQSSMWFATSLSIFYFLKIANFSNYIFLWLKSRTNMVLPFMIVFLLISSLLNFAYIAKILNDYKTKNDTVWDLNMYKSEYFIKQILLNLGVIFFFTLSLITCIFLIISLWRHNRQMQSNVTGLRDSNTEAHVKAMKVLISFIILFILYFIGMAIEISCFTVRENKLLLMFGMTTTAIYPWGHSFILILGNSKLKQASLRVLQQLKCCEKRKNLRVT
Procedure: as §1

[4] = biological target: T4, TAS2R38 (Homo sapiens, UniProt P59533)
T4 construct: first 45 amino acids of rat somatostatin type 3 receptor (SSTR3) (N); expressed in transfected cells; host or cells: HEK293T stably expressing chimeric Gα16gust44, transiently co-transfected with the pcDNA4-TAS2R vector and pCMV-GCaMP5G
T4 sequence (P59533 1-333): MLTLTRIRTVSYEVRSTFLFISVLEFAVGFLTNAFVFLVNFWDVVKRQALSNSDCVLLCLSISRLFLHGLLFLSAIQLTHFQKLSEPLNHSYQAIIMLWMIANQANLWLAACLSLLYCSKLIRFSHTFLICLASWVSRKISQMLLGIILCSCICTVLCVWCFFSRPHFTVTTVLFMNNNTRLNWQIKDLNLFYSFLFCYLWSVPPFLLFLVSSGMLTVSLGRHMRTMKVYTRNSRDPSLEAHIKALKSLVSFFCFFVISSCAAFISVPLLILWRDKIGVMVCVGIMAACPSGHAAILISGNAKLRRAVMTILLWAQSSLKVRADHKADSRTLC
Procedure: as §1

[5] = biological target: T5, TAS2R14 (Homo sapiens, UniProt Q9NYV8); conditions: calcium response F/F0
T5 construct: first 45 amino acids of rat somatostatin type 3 receptor (SSTR3) (N); expressed in transfected cells; host or cells: HEK293T stably expressing chimeric Gα16gust44, transiently co-transfected with the pcDNA4-TAS2R vector and pCMV-GCaMP5G
T5 sequence (Q9NYV8 1-317): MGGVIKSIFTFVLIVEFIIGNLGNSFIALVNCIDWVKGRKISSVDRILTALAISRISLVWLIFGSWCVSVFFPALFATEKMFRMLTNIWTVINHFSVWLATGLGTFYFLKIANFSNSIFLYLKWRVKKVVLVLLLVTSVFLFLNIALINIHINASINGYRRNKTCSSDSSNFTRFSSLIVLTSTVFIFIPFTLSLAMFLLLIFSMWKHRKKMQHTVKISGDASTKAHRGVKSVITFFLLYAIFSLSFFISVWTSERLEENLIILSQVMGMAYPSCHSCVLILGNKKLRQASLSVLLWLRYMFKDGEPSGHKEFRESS
Procedure: as §1

maximum amplitude ([1]; calcium response F/F0): 0.59 ± 0.03
EC50 ([1]; calcium response, 0–1000 µM): 884 ± 41 µM
maximum amplitude ([2]; calcium response F/F0): around 0.45
EC50 ([2]; calcium response, 0–1000 µM): 333 ± 27 µM
maximum amplitude ([3]; calcium response F/F0): 0.13 ± 0.03
EC50 ([3]; calcium response, 0–1000 µM): 438 ± 120 µM
maximum amplitude ([4]; calcium response F/F0): 0.05 ± 0.01
EC50 ([4]; calcium response, 0–1000 µM): 476 ± 125 µM
maximum amplitude [5]: around 0.45
Substance: 3-oxo-C12:2-HSL
